Here are results for 1 compound from patent US20060046976A1, “Method for increasing the bone mineral density and bone micro-architecture or connectivity of a mammal using N-acylated glucosamines” (priority 2004, published 2006).

Test [1] relates to non-ovariectomised animals. The test is described as follows: BMD by DXA in non-ovariectomised rats fed GlcNBu. The note with it: 200 mg GlcNBu daily, not statistically significant, data not shown. The class given is in vivo, rat. On the procedure: (§1) Sixteen ovariectomised rats (Charles River Laboratories), approximately 200 g in weight, were randomized into two groups. The control group received 200 mg of glucose, by mouth as single daily doses and the GlcNBu-treated group received 200 mg of GlcNBu by mouth, as single daily doses, for a total period of six (6) months. A similar group of non-ovariectomised animals was fed with GlcNBu or glucose at the same doses. The feeding of the compounds was done in small amounts of peanut butter which was very acceptable to the rats, which were allowed free access to water and rat chow. The animals had the BMDs of the femurs (total or global BMD) and the lumbar spines were estimated at baseline and then at, approximately 2, 4 and 6 months. Consistent position of the femurs was assured with a pre-determined grid. A Hologic 4500 DXA machine, with small animal software, was employed for the study. The animals were lightly anesthetized for each measurement.

For another test, the system named is ovariectomised rats. In words: Wet weight of femurs, ovariectomised rats. It is filed as in vivo, rat. As to conditions: ovariectomised animals, oral feeding of GlcNBu, 6 months. On the procedure:
as §1
(§2) At the end of the experiment, the animals were sacrificed, plasma was collected by cardiac puncture, and the femurs removed, fully dissected from adherent tissue and the wet weight was determined. The concentrations of Insulin-like Growth factor I (IGF-1) in the plasma, obtained at the end of the experiment, were determined by a commercial immunological method.

Test [2] deals with non-ovariectomised animals. In words: Wet weight of femurs, non-ovariectomised rats. The note with it: oral feeding of GlcNBu, 6 months. The class given is in vivo, rat. As for the experimental part:
as §1, §2

The subject of test [3] is SCW-arthritis rats. The test is described as follows: BMD by DXA of femurs and tibias in SCW-arthritis rats. The class given is in vivo, Lewis type rats. As to conditions: 6 weeks. From the text:
(§3) In this experiment performed and described herein, there were four groups of Lewis type rats, consisting of eight (8) animals in each group. Lewis type rats had experimental arthritis induced by a single intra-peritoneal injection of streptococcal cell wall antigen (SCW). This type of arthritis has an acute and chronic phase and affects mostly the distal joints in the hind limbs of the animals, and, less so, the knees and hips. Groups 1-3, inclusive, had inflammatory arthritis induced. The compound used in the experiment was used to supplement normal rat chow feed on a daily basis. Feed and water were unrestricted. Group I feed was supplemented with the compound shown in formula II, abbreviated as GlcNBu, at a dose of 200mg/kg/day. […] All the dissected femurs and tibiae were scanned with dual energy x-ray absorptiometry (DXA) were measured at the distal femur, and proximal tibia using a user defined region of interest (ROI). • Micro-CT imaging protocol. […] The reconstructed tibia images were analyzed with MicroView 2.0 software (GE Healthcare, London, ON) in two and three dimensions. • Three-dimensional trabecular bone measurements. […] On 3D analysis, the tissue volume (3D-TV, mm3) and trabecular bone volume (3D-BV, mm3) were measured directly, and the fractional trabecular bone volume (3D-BV/TV, %) was calculated. […]

The subject of test [4] is SCW-arthritis rats. In words: Three-dimensional isosurface of tibia (bone erosion), SCW-arthritis rats. The class given is in vivo, Lewis type rats. The note with it: GlcNBu treated, especially high dose.
From the text: as §3, with “unrestricted.” for “unrestricted. Group I feed was supplemented with the compound shown in formula II, abbreviated as GlcNBu, at a dose of 200mg/kg/day.”

The structures appear in SMILES notation.

As to `CCCC(=O)N[C@H]1C(O)O[C@H](CO)[C@@H](O)[C@@H]1O` (stereo partly drawn) [GlcNBu, N-butyryl-D-glucosamine], in test [1], the “BMD at the sites measured vs glucose-fed animals” value was “higher trends in the BMD”. Moreover, the femoral wet weight result (in the test on ovariectomised rats; in test [2]) was “increases femoral wet weight” in each case. In the test on SCW-arthritis rats [3] (200 mg/kg/day in feed), the “BMD femurs and tibias, Group I (GlcNBu 200 mg) vs Group 3 (GlcNBu 20 mg)” value is “much greater”. For the same compound, the “BMD differences between Group 1 (GlcNBu 200 mg) and other Groups” value in the test on SCW-arthritis rats [3] (200 mg/kg/day) is recorded as “Statistical significance of the differences was achieved”. Besides, the “bone erosion at the joint margin (isosurfaces)” value in the test with SCW-arthritis rats [4] is “effectively protects bone from further erosion”.
